{
  "source": "patent US11072584B2",
  "about": "“Carbon monoxide releasing norbornenone compounds” (OTAGO INNOVATION LIMITED, priority 2015, dated 2021)",
  "tested_on": "cardiac tissue",
  "assay": "static storage of cardiac tissue sections, TTC tissue viability stain",
  "design": "species or system Sprague Dawley (SD) rats",
  "settings": "3 μM in DMEM; 24 and 48 hours cool static storage",
  "protocol": "The following protocol was used to assess the ex vivo protective effects of the oCOm compounds in solid, non-perfused biological tissues. Male Sprague Dawley (SD) rats (280-310 g) were decapitated and the hearts rapidly excised. Hearts were cut into 1 mm thick sections and placed in 3 ml of DMEM in sterile 24 well tissue culture plates. Two tissues sections from each heart were immediately stained without storing, with 1% 2,3,5-Triphenyltetrazolium chloride (TTC) in glucose supplemented DMEM for 15 minutes at 37° C. with continuous shaking. Theses tissues represent the baseline tissue viability prior to storage. This staining technique requires active dehydrogenase enzymes to be present in order to convert TCC to a brick red formazan pigment. […] Tissues were then stained with TTC and fixed as above. One control tissue section was left unstained for comparison. All samples were sectioned transversely, photographed and staining intensity assessed qualitatively.",
  "data": [
    {"smiles": "CC12C(=O)C(C)(C(c3ccccc3)=C1c1ccccc1)C1C(=O)N(CCN)C(=O)C12.O=C(O)C(F)(F)F", "note": "(stereo not shown) [DB-21, 2-(4,7-Dimethyl-1,3,8-trioxo-5,6-diphenyl-3a,4,7,7a-tetrahydro-1H-4,7-methanoisoindol-2(2H)-yl)ethanaminium 2,2,2-trifluoroacetate]", "values": [
      {"measurement": "tissue viability by TTC (formazan) staining (in words)", "value": "little staining was visible"}
    ]}
  ]
}
